Data: patent EP4186500A1, “MEK INHIBITORS FOR THE PREVENTION AND TREATMENT OF LONG COVID SYNDROME” (Atriva Therapeutics GmbH, priority 2021, dated 2023)
Like-named read-outs stand apart in the source and are kept apart here.

Experiments:
SARS-CoV-2 strain FI = assay type: cell-based, Severe acute respiratory syndrome coronavirus; conditions: Vero cells, MOI 0.01; 50 µM ATR-002; 24h, 36h and 48h
[1] = tested on: Human T-cell Inflammation; assay: T-cell inflammation inhibition assay (ConA and PHA stimulation) in PBMC; conditions: 100, 50, and 25 µM, 24 hours, PBMC from three human donors
[2] = tested on: Human T-cell Inflammation; assay: T-cell inflammation inhibition assay (Anti-CD3 stimulation) in PBMC; conditions: 100, 50, and 25 µM, 24 hours, PBMC from three human donors
[3] = tested on: SARS-CoV-2 viral gene RdRP; assay type: cell-based, Severe acute respiratory syndrome coronavirus; conditions: Vero cells, MOI 0.01; 50 µM ATR-002; 24, 36 and 48 hpi
ACE2 = ACE2 expression in Calu-3 cells (immunofluorescence microscopy and WES); assay type: cell-based, Homo sapiens; conditions: 100µM ATR-002, 24h
Experimental: Then the wells were washed once with PBS and fixed with 300µL/well 4% PFA in PBS for 10 minutes at room temperature. After another wash step with PBS, the cells were blocked for 1 hour with 1% BSA in PBS at room temperature before incubation with 200µL/well of the primary antibody (Goat-Anti-ACE2 antibody (R&D systems; Cat.: AF933; Lot.:HOK0320061) (1:20) in 1% BSA in PBS for 1h at room temperature on a shaker (100 rpm). Afterwards, the cells were washed three times with PBS before incubation with 200µL/well of the secondary antibody Donkey anti-Goat IgG (H+L) Highly Cross-Absorbed Secondary Antibody, Alexa Fluor Plus 647 (Invitrogen; Ref.: A32849TR; Lot.:VE306231) (1:200) in 1% BSA in PBS for 45 minutes at room temperature on a shaker. After another three wash steps with PBS, 200µL Rhodamine Phalloidin (Invitrogen; Ref.: R415; Lot.: 2157163) (1:40 in 1% BSA in PBS) were added to each well and incubated for 30 minutes at room temperature on a shaker. After two final wash steps with PBS, the cover slips were removed from the wells and mounted on microscope slides with Roti®-Mount FluorCare DAPI (Roth; Art.-Nr.: HP20.1; Lot.: 080293945). The slides were let dry at 4°C in the dark and then analysed using a confocal laser scanning microscope (LSM800, Zeiss).

Calu-3 cells = assay: Cytotoxicity evaluation in Calu-3 cells; assay type: cell-based, Homo sapiens; conditions: 72 h treatment
Experimental: In a next step, Calu-3 cells were incubated with increasing amounts of ATR-002 over 24, 48 or 72 hours. Specifically, Calu-3 cells were infected with SARS-CoV-2 (FI) using a MOI of 0.01. 1 h.p.i. cells were treated with ATR-002. Mock, SARS-CoV-2 and DMSO served as controls. […] Untreated (SARS-CoV-2) and DMSO (0.1 %) treated cells served as negative controls. Data represents means ± SD of three independent experiments, each performed in triplicates. Data passed a one-way ANOVA followed by Dunnett's multiple comparison test (^∗∗ p≤0.0021; ^∗∗∗ p≤0,0002; ^∗∗∗∗ p≤0.0001) for each time point separately. DMSO was used as reference. […] Data in combination with (C) was used to calculate the CC50 value and the selectivity index (SI). […] Data represent means ± SD of three independent experiments.

MCP-1 = MCP-1 expression in SARS-CoV-2 infected CaCo2 cells; assay type: cell-based, Homo sapiens; conditions: high amount of ATR-002 necessary
[4] = tested on: IP10, TNF-alpha and MCP-1; assay: Cytokine/chemokine expression in LPS induced PBMC
pERK1/2 = assay: Wes analysis of ERK phosphorylation in SARS-CoV-2 infected Caco-2 cells; assay type: cell-based, Homo sapiens; conditions: CaCo-2 cells infected SARS-CoV-2 (MOI 0.1); 50 and 100 µM ATR-002; 24h
Experimental: For the Virus yield reduction assay a 24-well plate (Greiner Bio-One, Cat. 662-160) with 95% confluent Caco-2 cells was prepared. The wells were washed once with Caco-2 infection medium DMEM (Gibco, Cat. 41965-039) supplemented with 5% FCS (Capricorn, Cat. FBS-12A), 1% Penicillin/Streptomycin, (Sigma Aldrich, Cat. P4333) and 1% Non-essential amino acids (NEAA) (Merck, Cat. K 0293). Cells were infected with SARS-CoV-2 (MOI 0.1) for 1h in 200µL Caco-2 infection medium per well. Afterwards the Virus inoculum was removed completely and cells were treated with 1mL per well with different concentrations of ATR-002 (100µM, 50µM, 25µM, 12.5µM, 6.25µM, 3.125µM, 1.56µM, 0.78µM, 0.39µM, 0.195µM, 0.098µM, 0µM) in Caco-2 infection medium with 1% DMSO for 24h at 37°C, 5% CO2. […]
Wes™ capillary electrophoresis by ProteinSimple® was used to identify and quantify pERK1/2, ERK1/2 and SARS-CoV-2 Nucleoprotein. Cell lysates were diluted with 0.1X Sample Buffer (ProteinSimple, Abingdon, Oxford, UK) to approximately 50ng total protein per lane and analyzed using specific antibodies. […] The anti-rabbit secondary antibody (ProteinSimple, Cat. DM-001) and anti-mouse secondary antibody (ProteinSimple, Cat. DM-002) and all other reagents for WES analysis were also purchased from ProteinSimple and were ready to use.

SARS-CoV-2 [5] = assay type: cell-based, Severe acute respiratory syndrome coronavirus; conditions: CaCo-2 cells, MOI 0.1; 50 and 100 µM ATR-002; 24h
VSV ΔG/GFP-Luc+SΔ21 = assay type: cell-based
SARS-CoV-2 (FI) [6] = assay type: cell-based, Severe acute respiratory syndrome coronavirus
SARS-CoV-2 [7] = assay: SARS-CoV-2 Syrian hamster infection model; conditions: for reduction of progeny virus in throat swabs (TCID50 assay): 100mg/kg loading dose then 75mg/kg daily, oral; for reduction of progeny virus in throat swabs (TCID50 assay) / reduction of viral load in throat swabs (PCR): day 3 p.i.
[8] = tested on: cytokine & chemokine gene expression; assay: Acute lung injury (ALI) mouse model, LPS induced cytokine and chemokine gene expression; assay type: in vivo; conditions: 5mg/kg LPS i.p.; 25 mg/kg ATR-002 i.p. one hour post stimulation; 6h post treatment
SARS-CoV-2 [9] = assay type: cell-based, Severe acute respiratory syndrome coronavirus; conditions: Caco-2, Vero E6 and Calu-3 cells; 100 µM, 75 µM, 50 µM; 24 hours
[10] = tested on: IL-6, IL-8, MCP-1, IP-10 and CCL5 mRNA; assay: Pro-inflammatory cytokine mRNA expression in SARS-CoV-2 infected Calu-3 cells (real-time PCR); assay type: cell-based, Homo sapiens; conditions: SARS-CoV-2 (FI) MOI 0.01, increasing amounts of ATR-002
MxA and IL8 mRNA = MxA and IL8 mRNA expression in poly (I:C) transfected A549 cells; assay type: cell-based, Homo sapiens; conditions: 100 ng/ml poly (I:C), 24 hours
memory T cells = assay: 12-day T cell clonal expansion with IFN-γ FluoroSpot (memory T cell reactivation)
[11] = human, in vivo
SARS-CoV-2 (FI) [12] = assay type: cell-based, Severe acute respiratory syndrome coronavirus; conditions: primary human ALI cultures, MOI 1.0; 50 µM and 100 µM; three cultures
[13] = LPS induced PMBC cells, 10µg/ml ATR-002

Question: Which “viral load (virus titer by plaque assay)” value (SARS-CoV-2 strain FI) does the source give for O=C(O)c1ccc(F)c(F)c1Nc1ccc(I)cc1Cl [ATR-002, 2-(2-chloro-4-iodophenylamino)-N-3,4-difluoro benzoic acid] here?
Answer: lower viral load than control cells

Question: What about the “inhibition of cytokine/chemokine stimulation” value ([1]; ConA stimulation) of the same molecule?
Answer: significant, dose dependent inhibition

Question: What about the “inhibition of cytokine/chemokine stimulation” value ([1]; PHA stimulation) of the same molecule?
Answer: significant, dose dependent inhibition

Question: What about the “inhibition of cytokine/chemokine stimulation” value [2] of the same molecule?
Answer: significant, dose dependent inhibition

Question: What about the “SARS-CoV-2 viral gene RdRP genome copy number” value [3] of the same molecule?
Answer: confirmed

Question: What about the ACE2 expression (ACE2) of the same molecule?
Answer: reduction of ACE2

Question: And the Cytotoxicity (Calu-3 cells)?
Answer: non-toxic concentration range

Question: What about the MCP-1 expression (MCP-1) of the same molecule?
Answer: able to reduce MCP-1 expression

Question: What about the inhibition at 10 µg/mL ([4]; Homo sapiens, PBMC, read-out: inhibition of LPS induced MCP-1) of the same molecule?
Answer: > 90%

Question: What about the IP10 expression [4, 13] of the same molecule?
Answer: reduced

Question: What about the MCP-1 expression [4, 13] of the same molecule?
Answer: reduced

Question: What about the TNF-alpha expression [4, 13] of the same molecule?
Answer: reduced

Question: What about the ERK-phosphorylation (pERK1/2) of the same molecule?
Answer: inhibition

Question: What about the SARS-CoV-2 virus titer (SARS-CoV-2 [5]) of the same molecule?
Answer: inhibition

Question: And the nucleocapsid protein (SARS-CoV-2 [5])?
Answer: inhibition

Question: And the “internalization of the VSV pseudotype virus (GFP-positive cells)” value (VSV ΔG/GFP-Luc+SΔ21)?
Answer: reduction in the internalization of the VSV pseudotype virus

Question: And the “cell damage of infected cells (light microscopy)” value (SARS-CoV-2 (FI) [6]; Calu-3 cells infected with SARS-CoV-2, Figure 6 D)?
Answer: did not show the characteristic cell damage

Question: What about the “production of progeny viral particles” value (SARS-CoV-2 (FI) [6]; Calu-3 cells, MOI 0.01, ATR-002 10 - 150 µM, 24, 48 or 72 hours) of the same molecule?
Answer: concentration dependent decrease in the production of progeny viral particles

Question: What about the “tolerability, weight loss, adverse effects” value (SARS-CoV-2 [7]; both treatment groups compared to vehicle group) of the same molecule?
Answer: well tolerated without significant weight loss

Question: What about the “alveolar haemorrhage, oedema and type II pneumocyte hyperplasia” value (SARS-CoV-2 [7]; histopathology 4 days post infection, treated at days 1, 2, and 3 post infection) of the same molecule?
Answer: no haemorrhage, oedema and type II pneumocyte hyperplasia

Question: And the score in alveolitis (SARS-CoV-2 [7]; histopathology 4 days post infection, treated at days 1, 2, and 3 post infection, vehicle score 3)?
Answer: 1

Question: What about the “reduction of progeny virus in throat swabs (TCID50 assay)” value (SARS-CoV-2 [7]; treated 4 hours p.i.) of the same molecule?
Answer: 1.1 log10

Question: And the “reduction of viral load in throat swabs (PCR)” value (SARS-CoV-2 [7]; treated 4 hours p.i.)?
Answer: 1.1 log10

Question: And the “reduction of progeny virus in throat swabs (TCID50 assay)” value (SARS-CoV-2 [7]; treated 24 hours p.i.)?
Answer: 1.3 log10

Question: What about the “reduction of viral load in throat swabs (PCR)” value (SARS-CoV-2 [7]; treated 24 hours p.i.) of the same molecule?
Answer: 1.2 log10

Question: What about the “percentage of affected lung area” value (SARS-CoV-2 [7]; treatment 4 hours p.i., day 4 p.i., P=0.0282) of the same molecule?
Answer: significantly reduced affected lung tissue

Question: And the “percentage of affected lung area” value (SARS-CoV-2 [7]; treatment 24 hours p.i., day 4 p.i., P=0.0314)?
Answer: significantly reduced affected lung tissue

Question: And the “reduction in infectious virus titers (TCID50/g tissue) in the nasal turbinates” value (SARS-CoV-2 [7]; treatment start 4 hours p.i., day 4 p.i.)?
Answer: 1.3 log10

Question: What about the “reduction of viral load in the nasal turbinates (PCR)” value (SARS-CoV-2 [7]; treatment started 4 hours p.i., day 4 p.i.) of the same molecule?
Answer: 1.1 log10

Question: What about the “infectious virus titers in the nasal turbinates” value (SARS-CoV-2 [7]; treatment started 24 hours p.i., day 4 p.i.) of the same molecule?
Answer: not the treatment started 24 hours p.i., significantly reduced infectious virus titers

Question: And the “IL-1beta gene expression in lung” value [8]?
Answer: decrease

Question: What about the “IL-8 gene expression in lung” value [8] of the same molecule?
Answer: decrease

Question: And the “IP-10 gene expression in lung” value [8]?
Answer: decrease

Question: What about the “MCP-1 gene expression in lung” value [8] of the same molecule?
Answer: decrease

Question: What about the “MIP-1beta gene expression in lung” value [8] of the same molecule?
Answer: decrease

Question: And the “TNF-alpha gene expression in lung” value [8]?
Answer: decrease

Question: And the “virus titer via RT-qPCR (N gene)” value (SARS-CoV-2 [9])?
Answer: the effect seen on all cell types was comparable

Question: What about the “expression of pro-inflammatory cytokines (IL-6, IL-8, MCP-1, IP-10 and CCL5 mRNA)” value [10] of the same molecule?
Answer: reduce the expression of pro-inflammatory cytokines

Question: And the “MxA mRNA expression (anti-viral interferon system)” value (MxA and IL8 mRNA)?
Answer: did not affect the stimulation of the anti-viral interferon system

Question: And the “expression of pro-inflammatory IL8” value (MxA and IL8 mRNA; even with low concentrations)?
Answer: strong reduction

Question: What about the “Spot counts, representing the number of activated T cells” value (memory T cells; CEF peptide stimulated PBMCs, three donors, 5 or 10 pg/mL on three different time points, 12 days) of the same molecule?
Answer: not reduced

Question: What about the “cell proliferation/density by microscope” value (memory T cells; in vitro culture of PBMC) of the same molecule?
Answer: no visible effect on cell proliferation/density

Question: What about the “blood levels (pharmacokinetics exposure)” value [11] of the same molecule?
Answer: confirm the maintenance of clinically relevant blood levels

Question: And the safety and tolerability [11]?
Answer: safe and well tolerable

Question: And the “safety of each dose cohort (Safety Review Committee)” value [11]?
Answer: considered to be safe

Question: And the serious adverse events [11]?
Answer: no serious adverse events

Question: What about the “production of progeny viral particles” value (SARS-CoV-2 (FI) [12]) of the same molecule?
Answer: completely blocked the production of progeny viral particles

Question: For O=C(NOCC1CC1)c1ccc(F)c(F)c1Nc1ccc(I)cc1Cl [CI-1040, reference compound], which “internalization of the VSV pseudotype virus (GFP-positive cells)” value (VSV ΔG/GFP-Luc+SΔ21) is on record?
Answer: reduction in the internalization of the VSV pseudotype virus
